This note sets out measurements from patent US20080014199A1, “Assessing Cancer And Vimentin” (MAYO FOUNDATION FOR MEDICAL EDUCATION AND RESEARCH, priority 2006, published 2008).

The test system of one experiment is CLL B cells. Briefly: Immunofluorescence staining of CLL B cell cytospins with FPSAHFL-displaying phage or fluorescein labelled polypeptide. The following applies: phage plus fluorescent anti-phage antibodies or fluorescein-labelled polypeptide. Format: binding, human. The source says:
FIG. 2 contains fluorescence photomicrographs showing binding of the FPSAHFL (SEQ ID NO:2) polypeptide to CLL B cells. CLL B cells were placed on slides by cytospining and were stained with phages displaying the FPSAHFL (SEQ ID NO:2) polypeptide and FITC labeled anti-phage antibody (A and D) or were stained directly with fluorescein conjugated FPSAHFL (SEQ ID NO:2) polypeptide (B, C, and E).
Binding of the FPSAHFL (SEQ ID NO:2) polypeptide to CLL B cells was investigated using immunofluorescence. Cytospins of 10^5 CLL B cells (see, Example 1) were prepared and incubated for 20 minutes at room temperature with phages displaying FPSAHFL (SEQ ID NO:2; 10^8 pfu). The cells were then washed twice with PBS and incubated for 15 minutes at room temperature with 10 μg of mouse anti-M13 phage antibodies (New England Biolabs). The cells were stained for 15 minutes at room temperature with 2 μg of fluorescein isothiocyanate (FITC) labelled secondary anti-mouse antibodies (Vector Laboratories Inc, Burlingame, Calif., USA). Non-displaying M13 phages were used as a control (New England Biolabs) and co-staining with 4′-6-Diamidino-2-phenylindole (DAPI) was used to identify cells. […] The purity of the polypeptide preparation (>99.9%) was assessed by mass spectrometry and high performance liquid chromatography using internal standards.

Experiment [1] has as its target T1, vimentin (Homo sapiens, UniProt P08670).
T1 construct: CLL B cell lysates were immunoprecipitated using phage and anti-phage antibodies; endogenous in cells; host or cells: primary CLL B cells (patient leukemic cells), total protein lysate
Briefly: Immunoprecipitation of CLL B cell lysates with FPSAHFL phage and anti-phage antibodies, Western blotting, nano LC-MS/MS target identification. Format: binding. How it is done:
(§1) To identify FPSAHFL (SEQ ID NO:2) polypeptide targets, CLL B cell lysates were immunoprecipitated using phage and anti-phage antibodies. Total protein extracts were prepared from primary leukemic cells (see, Example 1) by lysing cells in cold lysis buffer (30 mM Tris-HCl, pH 7.4; 150 mM NaCl; 1% glycerol (v/v); 1% Triton X-100 (v/v); and 2 mM EDTA) in the presence of phosphatase inhibitors (100 mM NaF, 10 mM Na4P2O4, 1 mM Na2VO4), and protease inhibitors (10 μg/mL Leupeptin, 10 μg/mL Pepstatin A, and 1 mM phenylmethylsulfonyl fluoride (PMSF)). After centrifugation to remove cell debris, protein extracts were immunoprecipitated overnight at 4° C. on a rotator with phages displaying FPSAHFL (SEQ ID NO:2; 10^11 pfu[…]), anti-M13 phage antibodies and 40 μL goat anti-mouse IgG-sepharose 4B beads (Zymed, San Francisco, Calif., USA), according to the manufacturer's instructions. The beads were washed three times with lysis buffer, resuspended into a loading buffer and subjected to SDS-PAGE (5%-15%) under reducing conditions. The polypeptide was visualized by Coomassie blue or silver staining. To confirm that the immunoprecipitated polypeptide was indeed the target for FPSAHFL (SEQ ID NO:2) phage, Western blotting was performed using staining with FPSAHFL (SEQ ID NO:2) phage and anti-M13 phage antibodies. Non-displaying phage were used as a control. […]

The next experiment relates to unmutated CLL B cells. The experiment can be described thus: Subtraction biopanning with phage display polypeptide library on unmutated versus mutated CLL B cells. Format: binding, human. How it is done: Phages displaying IgVH mutational status-specific polypeptides were isolated. 10^11 plaque forming units (pfu) of PDPL Ph.D.-7 (New England Biolabs, Ipswich, Mass.) were added to 10^6 unmutated CLL B cells suspended in 1 mL of phosphate buffered saline (PBS) containing 0.5% bovine serum albumin (BSA), and the mixture was incubated at room temperature for 1 hour with gentle rocking (FIG. 1A). The cells with attached phages were spun down and washed three times with PBS containing 0.5% BSA (FIG. 1B). The attached phages were then eluted for 20 minutes by adding 1 mL of elution buffer (1% BSA, 0.2 M Glycine-HCl, pH 2.2; FIG. 1C). The elution buffer was neutralized with 0.15 mL of 1 M Tris-HCl (pH 9.1). The eluted phages were precipitated by adding 0.2 mL of a solution containing 20% (w/v) polyethylene glycol 8,000 (Sigma, Saint Louis, Mo.) and 2.5 M NaCl. The eluted phages were then added to a suspension of 10^6 mutated CLL B cells in PBS with 0.5% BSA and incubated with gentle rocking for 40 minutes. The cells with bound phages (FIG. 1D) were spun down, leaving the supernatant containing unbound phages. This latter step was repeated four times to ensure complete subtraction of phages binding to mutated CLL B cells. The unbound phages in the supernatant were titered, amplified and purified as described elsewhere (Nowakowski et al., Stem Cells, 22(6):1030-8 (2004); FIG. 1E). […]

Experiment [2] addresses T2, vimentin (human (CLL patients), UniProt P08670 2-466).
T2 construct: Endogenous protein from total protein extracts of CLL patient cells; It ran on SDS-PAGE under reducing conditions for the Western blot; also called 56 kDa band; immunoprecipitated polypeptide
The experiment can be described thus: immunoprecipitation from CLL B cell lysate with phage and anti-M13 antibodies; Western blot with phage. How it is done: as §1, with “Na₄P₂O₄,” for “Na4P2O4,”, “Na₂VO₄),” for “Na2VO4),”, “10¹¹” for “10^11”
(In western blotting, separated proteins are transferred to a membrane and probed.)

Entries after “also recorded” stand apart in the source; their conditions may differ. No end group written: not given here. fluorescein = fluorescein label conjugated to the peptide

T1 sequence (P08670 whole entry): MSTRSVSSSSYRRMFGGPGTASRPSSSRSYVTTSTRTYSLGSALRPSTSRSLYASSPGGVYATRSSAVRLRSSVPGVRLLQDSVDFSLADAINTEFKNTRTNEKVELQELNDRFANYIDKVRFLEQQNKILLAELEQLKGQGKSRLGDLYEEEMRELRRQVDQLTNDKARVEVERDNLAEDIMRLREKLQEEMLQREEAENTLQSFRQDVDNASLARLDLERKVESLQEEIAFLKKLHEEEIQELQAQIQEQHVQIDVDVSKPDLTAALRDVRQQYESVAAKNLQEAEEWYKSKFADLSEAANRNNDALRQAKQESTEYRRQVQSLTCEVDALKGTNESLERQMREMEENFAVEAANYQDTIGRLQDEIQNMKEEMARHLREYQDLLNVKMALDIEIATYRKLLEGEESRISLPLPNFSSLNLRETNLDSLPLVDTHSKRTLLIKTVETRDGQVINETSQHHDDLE
T2 sequence (P08670 2-466 limits assumed): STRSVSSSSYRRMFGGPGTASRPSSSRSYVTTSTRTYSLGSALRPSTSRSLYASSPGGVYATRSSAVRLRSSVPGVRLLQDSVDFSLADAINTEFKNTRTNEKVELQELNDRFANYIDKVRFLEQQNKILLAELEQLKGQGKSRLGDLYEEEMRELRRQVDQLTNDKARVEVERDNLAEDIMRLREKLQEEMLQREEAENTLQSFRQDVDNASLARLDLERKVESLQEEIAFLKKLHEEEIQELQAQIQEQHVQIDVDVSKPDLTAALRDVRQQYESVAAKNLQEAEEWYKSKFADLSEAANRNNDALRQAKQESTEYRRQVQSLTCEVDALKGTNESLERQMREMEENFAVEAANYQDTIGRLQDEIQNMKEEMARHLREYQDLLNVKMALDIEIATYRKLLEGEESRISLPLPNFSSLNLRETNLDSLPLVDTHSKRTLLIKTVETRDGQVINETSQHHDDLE

As for “FPSAHFL (fluorescein-FPSAHFL) [also synthesized and fluorescein labelled at the N terminus]”, in the experiment on CLL B cells, the “Cellular localization of binding (pattern of staining)” value was “localized within the cytoplasm; also recorded: cytoplasmic pattern of staining”. Besides, in the experiment with vimentin [1] (in-gel trypsin digestion, nano LC-MS/MS, Mascot and Sequest), the “Target of the polypeptide identified” value is “vimentin”. In addition, the “Band immunoprecipitated from CLL polypeptides” value in the experiment with vimentin [1] (phage bearing the polypeptide and anti-phage antibodies, binding confirmed by Western blotting) worked out at 56 kDa. Moreover, the “Percentage of sequenced single phage colonies encoding the polypeptide” value with unmutated CLL B cells (fourth round of biopanning) turned out to be 34%; in the experiment with unmutated CLL B cells (third round of subtraction biopanning), 20%.

B1: phage displaying the FPSAHFL (SEQ ID NO:2) polypeptide (peptide, not shown: large carriers)
peptide: FPSAHFL
modifications: also: displayed on M13 phage coat protein, fusion end not given here
notes: 7-mer selected from the Ph.D.-7 phage display library
As for B1, in the experiment with vimentin [2], the binding result is given as “binds”.
